Reference: patent US9346812B2, “Substituted pyrrolopyrimidine compounds, compositions thereof, and methods of treatment therewith” (Signal Pharmaceutical LLC, priority 2013, dated 2016)
Where two headings read alike, the source gives them in different places.

Test system: CAL51 cell proliferation
Experiment: Cell Titer Glo Proliferation Assay (CAL51)
Format: cell-based, human
Settings: CAL51 cell proliferation, 72 h, Cell Titer Glo luminescence, read-out: Act. Level
In short: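 Viability is measured by CellTiter-Glo luminescence after 72 h of compound exposure. CAL51 cells were seeded in growth medium with 10% FBS and 2 mM glutamine, cultured overnight, then dosed with compound dilutions, vehicle held at 0.2% DMSO.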

Row | SMILES | IC50 (Homo sapiens, CAL-51) | IC50
1 | CNC(=O)c1ccc(Nc2nc(OC(C)C)c3c(-c4ccc(-c5ncc[nH]5)cc4)c[nH]c3n2)c(OC)c1 [Example 193, 4-(5-(4-(1H-imidazol-2-yl)phenyl)-4-isopropoxy-7H-pyrrolo [2,3-d]pyrimidin-2-ylamino)-3-methoxy-N-methylbenzamide] | < 100 nM | –
2 | CNC(=O)c1ccc(Nc2nc(OC(C)C)c3c(-c4ccnc(N)c4)c[nH]c3n2)c(OC)c1 [Example 194, 4-(5-(2-aminopyridin-4-yl)-4-isopropoxy-7H-pyrrolo[2,3-d]pyrimidin-2-ylamino)-3-methoxy-N-methylbenzamide] | < 100 nM | –
3 | CNC(=O)c1ccc(Nc2nc(OC3CCOCC3)c3c(-c4ccc(-c5nccn5C)cc4)c[nH]c3n2)c(OC)c1 [Example 195, 3-methoxy-N-methyl-4-(5-(4-(1-methyl-1H-imidazol-2-yl)phenyl)-4-(tetrahydro-2H-pyran-4-yloxy)-7H-pyrrolo[2,3-d]pyrimidin-2-ylamino)benzamide] | 1000 to 10000 nM | –
4 | CCOc1ccc(-c2c[nH]c3nc(Nc4ccc(C(=O)NC)cc4OC)nc(OC(C)C)c23)cn1 [Example 196, 4-(5-(6-ethoxypyridin-3-yl)-4-isopropoxy-7H-pyrrolo[2,3-d]pyrimidin-2-ylamino)-3-methoxy-N-methylbenzamide] | 100 to 400 nM | –
5 | CNC(=O)c1ccc(Nc2nc(OC3CCOCC3)c3c(-c4ccc(-c5nc(C)c(C)[nH]5)cc4)c[nH]c3n2)c(OC)c1 [Example 197, 4-(5-(4-(4,5-dimethyl-1H-imidazol-2-yl)phenyl)-4-(tetrahydro-2H-pyran-4-yloxy)-7H-pyrrolo[2,3-d]pyrimidin-2-ylamino)-3-methoxy-N-methylbenzamide] | 100 to 400 nM | –
6 | CNC(=O)c1ccc(Nc2nc(OC3CCC3)c3c(-c4ccc5nc(C)oc5c4)c[nH]c3n2)c(OC)c1 [Example 198, 4-(4-cyclobutoxy-5-(2-methylbenzo[d]oxazol-6-yl)-7H-pyrrolo[2,3-d]pyrimidin-2-ylamino)-3-methoxy-N-methylbenzamide] | < 100 nM | –
7 | CNC(=O)c1ccc(Nc2nc(OC(C)C)c3c(-c4ccnc(NC)c4)c[nH]c3n2)c(OC)c1 [Example 199, 4-(4-isopropoxy-5-(2-(methylamino)pyridin-4-yl)-7H-pyrrolo[2,3-d]pyrimidin-2-ylamino)-3-methoxy-N-methylbenzamide] | < 100 nM | –
8 | CNC(=O)c1ccc(Nc2nc(OC3CCOCC3)c3c(-c4ccncc4)c[nH]c3n2)c(C(C)C)c1 [Example 200, 3-isopropyl-N-methyl-4-(5-(pyridin-4-yl)-4-(tetrahydro-2H-pyran-4-yloxy)-7H-pyrrolo[2,3-d]pyrimidin-2-ylamino) benzamide] | 100 to 400 nM | –
9 | CNC(=O)c1ccc(Nc2nc(OC(C)C)c3c(-c4ccnc(C)c4)c[nH]c3n2)c(OC)c1 [Example 201, 4-(4-isopropoxy-5-(2-methyl-pyridin-4-yl)-7H-pyrrolo[2,3-d]pyrimidin-2-ylamino)-3-methoxy-N-methylbenzamide] | < 100 nM | –
10 | CNC(=O)c1ccc(Nc2nc(NC(C)C)c3c(-c4ccc5nc(C)oc5c4)c[nH]c3n2)c(OC)c1 [Example 202, 4-(4-(isopropylamino)-5-(2-methylbenzo[d]oxazol-6-yl)-7H-pyrrolo[2,3-d]pyrimidin-2-ylamino)-3-methoxy-N-methylbenzamide] | < 100 nM | –
11 | CC[C@@H](C)Oc1nc(Nc2ccc(C(=O)NC)cc2OC)nc2[nH]cc(-c3ccc4nc(C)oc4c3)c12 [Example 203, (R)-4-(4-sec-butoxy-5-(2-methylbenzo[d]oxazol-6-yl)-7H-pyrrolo[2,3-d]pyrimidin-2-ylamino)-3-methoxy-N-methylbenzamide] | 100 to 400 nM | –
12 | CC[C@H](C)Oc1nc(Nc2ccc(C(=O)NC)cc2OC)nc2[nH]cc(-c3ccc4nc(C)oc4c3)c12 [Example 204, (S)-4-(4-sec-butoxy-5-(2-methylbenzo[d]oxazol-6-yl)-7H-pyrrolo[2,3-d]pyrimidin-2-ylamino)-3-methoxy-N-methylbenzamide] | 100 to 400 nM | –
13 | CNC(=O)c1ccc(Nc2nc(O[C@H]3CC[C@](C)(O)CC3)c3c(-c4ccc5nc(C)oc5c4)c[nH]c3n2)c(OC)c1 [Example 205, 4-(4-((1r,4r)-4-hydroxy-4-methylcyclohexyloxy)-5-(2-methylbenzo[d]oxazol-6-yl)-7H-pyrrolo[2,3-d]pyrimidin-2-ylamino)-3-methoxy-N-methylbenzamide] | < 100 nM | –
14 | CNC(=O)c1ccc(Nc2nc(O[C@H]3CC[C@@](C)(O)CC3)c3c(-c4ccc5nc(C)oc5c4)c[nH]c3n2)c(OC)c1 [Example 206, 4-(4-((1s,4s)-4-hydroxy-4-methylcyclohexyloxy)-5-(2-methylbenzo[d]oxazol-6-yl)-7H-pyrrolo[2,3-d]pyrimidin-2-ylamino)-3-methoxy-N-methylbenzamide] | < 100 nM | –
15 | CNC(=O)c1ccc(Nc2nc(OC3CCOCC3)c3c(-c4ccc(-c5nc(C)c[nH]5)cc4)c[nH]c3n2)c(OC)c1 [Example 207, 3-methoxy-N-methyl-4-(5-(4-(4-methyl-1H-imidazol-2-yl)phenyl)-4-(tetrahydro-2H-pyran-4-yloxy)-7H-pyrrolo[2,3-d]pyrimidin-2-ylamino)benzamide] | < 100 nM | –
16 | CNC(=O)c1ccc(Nc2nc(O[C@H]3CCOC3)c3c(-c4cnn(C)c4)c[nH]c3n2)c(C(C)C)c1 [Example 208, (S)-3-isopropyl-N-methyl-4-(5-(1-methyl-1H-pyrazol-4-yl)-4-(tetahydrofuran-3-yloxy)-7H-pyrrolo[2,3-d]pyrimidin-2-ylamino)benzamide] | 100 to 400 nM | –
17 | CNC(=O)c1ccc(Nc2nc(O[C@H]3CCOC3)c3c(-c4ccc5nc(C)oc5c4)c[nH]c3n2)c(C(C)C)c1 [Example 209, (S)-3-isopropyl-N-methyl-4-(5-(2-methylbenzo[d]oxazol-6-yl)-4-(tetrahydrofuran-3-yloxy)-7H-pyrrolo[2,3-d]pyrimidin-2-ylamino)benzamide] | 1000 to 10000 nM | –
18 | CNC(=O)c1ccc(Nc2nc(NC3CCOCC3)c3c(-c4cnn(C)c4)c[nH]c3n2)c(OC)c1 [Example 210, 3-methoxy-N-methyl-4-(5-(1-methyl-1H-pyrazol-4-yl)-4-(tetrahydro-2H-pyran-4-ylamino)-7H-pyrrolo[2,3-d]pyrimidin-2-ylamino)benzamide] | < 100 nM | –
19 | CNC(=O)c1ccc(Nc2nc(NC3CC3)c3c(-c4cnn(C)c4)c[nH]c3n2)c(OC)c1 [Example 211, 4-(4-(cyclopropylamino)-5-(1-methyl-1H-pyrazol-4-yl)-7H-pyrrolo[2,3-d]pyrimidin-2-ylamino)-3-methoxy-N-methylbenzamide] | 100 to 400 nM | –
20 | CNC(=O)c1ccc(Nc2nc(NC3CC3)c3c(-c4ccc5nc(C)oc5c4)c[nH]c3n2)c(OC)c1 [Example 212, 4-(4-(cyclopropylamino)-5-(2-methylbenzo[d]oxazol-6-yl)-7H-pyrrolo[2,3-d]pyrimidin-2-ylamino)-3-methoxy-N-methylbenzamide] | 100 to 400 nM | –
21 | COc1cc(C(=O)NCCO)ccc1Nc1nc(OC2CCOCC2)c2c(-c3ccc4nc(C)oc4c3)c[nH]c2n1 [Example 213, N-(2-hydroxyethyl)-3-methoxy-4-(5-(2-methylbenzo[d]oxazol-6-yl)-4-(tetrahydro-2H-pyran-4-yloxy)-7H-pyrrolo[2,3-d]pyrimidin-2-ylamino)benzamide] | < 100 nM | –
22 | COc1cc(C(=O)N[C@H](C)CO)ccc1Nc1nc(OC2CCCC2)c2c(-c3ccc4nc(C)oc4c3)c[nH]c2n1 [Example 214, (R)-4-(4-(cyclopentyloxy)-5-(2-methylbenzo[d]oxazol-6-yl)-7H-pyrrolo[2,3-d]pyrimidin-2-ylamino)-N-(1-hydroxypropan-2-yl)-3-methoxybenzamide] | < 100 nM | –
23 | COc1cc(C(=O)N[C@@H](C)CO)ccc1Nc1nc(OC2CCCC2)c2c(-c3ccc4nc(C)oc4c3)c[nH]c2n1 [Example 215, (S)-4-(4-(cyclopentyloxy)-5-(2-methylbenzo[d]oxazol-6-yl)-7H-pyrrolo[2,3-d]pyrimidin-2-ylamino)-N-(1-hydroxypropan-2-yl)-3-methoxybenzamide] | < 100 nM | –
24 | COc1cc(C(=O)NCCO)ccc1Nc1nc(OC2CC2)c2c(-c3ccc4nc(C)oc4c3)c[nH]c2n1 [Example 216, 4-(4-cyclopropoxy-5-(2-methylbenzo[d]oxazol-6-yl)-7H-pyrrolo[2,3-d]pyrimidin-2-ylamino)-N-(2-hydroxyethyl)-3-methoxybenzamide] | < 100 nM | –
25 | COc1cc(C(=O)NCCO)ccc1Nc1nc(OC2CC2)c2c(-c3cnn(C)c3)c[nH]c2n1 [Example 217, 4-(4-cyclopropoxy-5-(1-methyl-1H-pyrazol-4-yl)-7H-pyrrolo[2,3-d]pyrimidin-2-ylamino)-N-(2-hydroxyethyl)-3-methoxybenzamide] | 100 to 400 nM | –
26 | CNC(=O)c1ccc(Nc2nc(OC3CC3)c3c(-c4ccn(C)n4)c[nH]c3n2)c(OC)c1 [Example 218, 4-(4-cyclopropoxy-5-(1-methyl-1H-pyrazol-3-yl)-7H-pyrrolo[2,3-d]pyrimidin-2-ylamino)-3-methoxy-N-methylbenzamide] | – | 1000 to 10000 nM
27 | CNS(=O)(=O)c1ccc(Nc2nc(OC3CCOCC3)c3c(-c4ccc5nc(C)oc5c4)c[nH]c3n2)c(OC)c1 [Example 219, 3-methoxy-N-methyl-4-(5-(2-methylbenzo[d]oxazol-6-yl)-4-(tetrahydro-2H-pyran-4-yloxy)-7H-pyrrolo[2,3-d]pyrimidin-2-ylamino)benzenesulfonamide] | 100 to 400 nM | –
28 | CNC(=O)c1ccc(Nc2nc(OC(C)C)c3c(-c4ccn(C)n4)c[nH]c3n2)c(OC)c1 [Example 220, 4-(4-isopropoxy-5-(1-methyl-1H-pyrazol-3-yl)-7H-pyrrolo[2,3-d]pyrimidin-2-ylamino)-3-methoxy-N-methylbenzamide] | 1000 to 10000 nM | –
29 | COCCOc1nc(Nc2ccc(C(=O)N(C)C)cc2OC)nc2[nH]cc(-c3cnn(C)c3)c12 [Example 221, 3-methoxy-4-(4-(2-methoxyethoxy)-5-(1-methyl-1H-pyrazol-4-yl)-7H-pyrrolo[2,3-d]pyrimidin-2-ylamino)-N,N-dimethylbenzamide] | < 100 nM | –
